Measurements: US10149473B2, “Aminoindanes amides having a high fungicidal activity and their phytosanitary compositions” (STITCHING I-F PRODUCT COLLABORATION, priority 2010, dated 2018)

Legend:
wheat plants = assay: Phytotoxicity (percentage of leaf necrosis) induced on wheat plants; format: in vivo, wheat (Salgemma variety); conditions: 125 ppm on wheat, scale 0 = completely healthy plant to 100 = completely necrotized plant
Method: (§1) Leaves of wheat plants of the Salgemma variety, grown in pots in a conditioned environment kept at 20° C. and 70% of relative humidity (R.H.), were treated by spraying on both sides of the leaves with the compounds under examination, dispersed in hydroacetonic solutions at 20% by volume of acetone.
At the same time, the phytotoxicity was evaluated (percentage of leaf necrosis) induced on the wheat plants by the application of the products: in this case, the evaluation scale varies from 0 (completely healthy plant) to 100 (completely necrotized plant).

Erysiphe graminis = assay: Fungicidal activity in preventive application (5 days) against Erysiphe graminis on wheat; format: in vivo, Erysiphe graminis on wheat (Salgemma variety); conditions: 125 ppm, leaf spray, infection 5 days after treatment, evaluation after 12 days, percentage scale 100 = healthy plant, 0 = completely infected plant; for Activity NT (parts which had developed during the test): non-treated parts (NT)
Method: Determination of the Fungicidal Activity in Preventive Application (5 Days) Against Erysiphe graminis on Wheat.
as §1
After remaining 5 days in a conditioned environment, the plants were infected under dry conditions by shaking over them, in order to distribute the inoculum, plants previously infected by Erysiphe graminis.
The plants were then maintained in the same cell, in a humidity-saturated environment and at a temperature ranging from 18 to 24° C. for 12 days.
At the end of this period, the external symptoms of the pathogen appeared and it was therefore possible to proceed with the evaluation of the intensity of the infection, on both the parts treated directly with the products (T), and also on the parts which had developed during the test (NT), by means of a visible percentage evaluation scale of the area of affected leafs; the scale comprises, as extremes, the value 100 (healthy plant) and the value 0 (completely infected plant).

| SMILES | Phytotoxicity (wheat plants) | Activity NT (parts which had developed during the test) (Erysiphe graminis) | Activity T (parts treated directly with the products) (Erysiphe graminis) |
| --- | --- | --- | --- |
| CC1CC(C)(C)c2cccc(NC(=O)c3cn(C)nc3C(F)F)c21 (stereo not drawn) [CR-1, 3-difluoromethyl-1-methyl-N-(1,1,3-trimethyl-4-indanyl)-4-pyrazolecarboxamide] | 10 | 65 | 70 |
| Cc1c(C(=O)Nc2ccc(F)c3c2CCC3(C)C)c(C(F)(F)F)nn1C [CR-2, 1,5-dimethyl-3-trifluoro-methyl-N-(1,1-dimethyl-7-fluoro-4-indanyl)-4-pyrazolecarboxamide] | 0 | 15 | 25 |
| Cc1nn(C)c(C)c1C(=O)Nc1c(F)ccc2c1CCC2(C)C [CR-3, 1,3,5-trimethyl-N-(1,1-dimethyl-5-fluoro-4-indanyl)-4-pyrazolecarboxamide] | 0 | 0 | 10 |
| CC1CC(C)(C)c2c(F)ccc(NC(=O)c3cn(C)nc3C(F)F)c21 (stereo not drawn) [Compound N. 1, 3-difluoromethyl-N-(7-fluoro-1,1,3-trimethyl-4-indanyl)-1-methyl-4-pyrazolecarboxamide] | 0 | 90 | 95 |
